Biological target: T1, Androgen Receptor (AR) (Homo sapiens, UniProt P10275, T878A)
T1 construct: cell based immuno-fluorescence assay using the LNCaP prostate epithelial cell line; endogenous in cells; host or cells: LNCaP clone FGC (ATCC CRL-1740)
T1 sequence (P10275 1-920 T878A): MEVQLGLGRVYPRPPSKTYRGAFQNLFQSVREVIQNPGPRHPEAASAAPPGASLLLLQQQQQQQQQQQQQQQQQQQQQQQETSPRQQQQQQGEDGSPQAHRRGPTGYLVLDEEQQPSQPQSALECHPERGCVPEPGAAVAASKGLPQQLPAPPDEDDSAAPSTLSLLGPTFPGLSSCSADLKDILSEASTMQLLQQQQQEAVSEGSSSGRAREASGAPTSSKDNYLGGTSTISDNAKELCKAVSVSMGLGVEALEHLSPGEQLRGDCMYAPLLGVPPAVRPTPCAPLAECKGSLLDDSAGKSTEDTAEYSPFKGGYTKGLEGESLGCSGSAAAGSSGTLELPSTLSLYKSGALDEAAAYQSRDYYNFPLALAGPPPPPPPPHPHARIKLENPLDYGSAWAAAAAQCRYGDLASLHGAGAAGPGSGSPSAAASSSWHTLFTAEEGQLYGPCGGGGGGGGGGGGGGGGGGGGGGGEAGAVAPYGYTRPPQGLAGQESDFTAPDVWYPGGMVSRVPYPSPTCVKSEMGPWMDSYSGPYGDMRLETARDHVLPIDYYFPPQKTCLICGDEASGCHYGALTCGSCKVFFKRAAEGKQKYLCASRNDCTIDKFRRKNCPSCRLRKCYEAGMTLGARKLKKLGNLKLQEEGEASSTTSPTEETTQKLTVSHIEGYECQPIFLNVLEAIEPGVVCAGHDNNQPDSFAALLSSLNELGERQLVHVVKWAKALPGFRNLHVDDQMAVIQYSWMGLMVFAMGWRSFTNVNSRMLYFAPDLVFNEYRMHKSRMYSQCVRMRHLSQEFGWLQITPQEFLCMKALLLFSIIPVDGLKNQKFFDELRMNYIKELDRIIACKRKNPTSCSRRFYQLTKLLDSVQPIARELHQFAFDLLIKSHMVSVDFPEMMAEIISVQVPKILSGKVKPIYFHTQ
Experiment: LNCaP Androgen Receptor Down-regulation Cell Assay (immunofluorescence end point)
Type: cell-based
Details: LNCaP prostate carcinoma cells, compound incubation 20-22 hours, 50% reduction of the AR signal; read-out: Androgen Receptor Down-regulation Assay (a) IC50/μM
Description: The ability of compounds to reduce Androgen Receptor (AR) numbers was assessed in a cell based immuno-fluorescence assay using the LNCaP prostate epithelial cell line.
a) LNCaP Androgen Receptor Down-regulation Cell Assay
A 5 ml volume of Growth Medium was added to each flask (as above except that 5% (v/v) charcoal stripped FBS (HyClone Code no. SH30068.03) was included instead of 10% (v/v) FBS). Cells were syringed at least twice using a sterile 18G×1.5″ (1.2×40 mm) broad gauge needle and cell density was measured using a haemocytometer.
Test data reported herein was generated using two different compounds preparation and dosing methods. In method (1) a 10 mM compound stock solution in 100% (v/v) DMSO was serially diluted in 4-fold steps in 100% (v/v) DMSO using a Thermo Scientific Matrix SerialMate. The diluted compounds were then further diluted 1 in 30 in assay media using a Thermo Scientific Matrix PlateMate and a 10 μl aliquot of this dilution was dosed to cells manually using a multi-channel pipette. In method (2) starting with a 10 mM compound stock solution, the Labcyte Echo 550 was used to generate a compound concentration response set diluted in 30 μl of assay media. The Echo 550 is a liquid handler that uses acoustic technology to perform direct microplate-to-microplate transfers of DMSO compound solutions. The system can be programmed to transfer volumes as low as […] in multiple increments between microplates and in so doing generates a serial dilution of compound which is then back-filled to normalise the DMSO concentration across the dilution range. A 10 μl volume of diluted compound is then dosed to cells using a Thermo Scientific Matrix PlateMate.
Plates were incubated overnight at 37° C., 5% CO2. Wells were then dosed with compound prepared by one of the 2 methods above and further incubated for 20-22 hours at 37° C., 5% CO2. […] This fixative solution was removed and cells were washed with 250 μl of PBS/0.05% (v/v) Tween 20 (PBST) using an automated plate washer. This process was then repeated twice more.
Immunostaining was performed at room temperature. Cells were permeabilised by the addition of 35 μl of PBS containing 0.5% Tween 20 and incubated for 1 hour at room temperature. Permeabilisation solution was removed and cells were washed with 250 μl of PBST using an automated plate washer. This process was then repeated twice more. 35 μl of Blocking Solution (PBST containing 3% (w/v) Marvel dried skimmed milk (Nestle)) was added to each well and plates were incubated at room temperature for a minimum of 1 hour. […] Then this primary antibody solution was removed from the wells followed by 3×100 μl PBST washes using a plate washer. […] Henceforth, wherever possible, plates were protected from light exposure. The plates were incubated for 1 hour and then the secondary antibody solution was removed from the wells followed by 3×100 ul PBST washes using a plate washer. Then 50 μl of PBST was added to each well and plates were covered with a black plate seal and stored at 4° C. before being read. Plates were read within six hours of completing the immunostaining.
The Green Fluorescent AR-associated signal in each well was measured using an Acumen Explorer HTS Reader (TTP Labtech Ltd., Cambridge). […] The instrument is a laser-scanning fluorescence microplate cytometer which samples the well at regular intervals and uses threshold algorithms to identify all fluorescent intensities above the solution background without the need to generate and analyse an image. These fluorescent objects can be quantified and provide a measure of the AR levels in cells. Fluorescence dose response data obtained with each compound was exported into a suitable software package (such as Origin) to perform curve fitting analysis. Down-regulation of AR levels was expressed as an IC50 value.

DC50 [µM]	Structure (SMILES)
0.38	FC(F)(F)c1cnc(N2CCCN(c3ccc4nnc(C(F)(F)F)n4n3)CC2)c(Cl)c1 [Example 30, 6-[4-[3-chloro-5-(trifluoromethyl)pyridin-2-yl]-1,4-diazepan-1-yl]-3-(trifluoromethyl)-[1,2,4]triazolo[4,3-b]pyridazine]
2.1	COc1nccc(-c2c(-c3ccc(F)cc3)ncn2C2CCN(c3ccc4nnc(C(F)(F)F)n4n3)CC2)n1 [Example 31, 6-[4-[4-(4-fluorophenyl)-5-(2-methoxypyrimidin-4-yl)imidazol-1-yl]piperidin-1-yl]-3-(trifluoromethyl)-[1,2,4]triazolo[4,3-b]pyridazine]
1.6	Cc1ccccc1N1CCN(c2ccc3nnc(C(F)(F)F)n3n2)CC1 [Example 32, 6-[4-(2-methylphenyl)piperazin-1-yl]-3-(trifluoromethyl)-[1,2,4]triazolo[4,3-b]pyridazine]
0.68	FC(F)(F)c1nnc2ccc(N3CCCN(Cc4ccccc4Cl)CC3)nn12 [Example 33, 6-[4-[(2-chlorophenyl)methyl]-1,4-diazepan-1-yl]-3-(trifluoromethyl)-[1,2,4]triazolo[4,3-b]pyridazine]
20	CCCC(=O)N1CC2CN(c3ccc4nnc(C(F)(F)F)n4n3)CC2C1 (centres unmarked) [Example 34, 1-[2-[3-(trifluoromethyl)-[1,2,4]triazolo[4,3-b]pyridazin-6-yl]-1,3,3a,4,6,6a-hexahydropyrrolo[3,4-c]pyrrol-5-yl]butan-1-one]
0.99	Cc1cccc(N2CCN(c3ccc4nnc(C(F)(F)F)n4n3)CC2)c1 [Example 36, 6-[4-(3-methylphenyl)piperazin-1-yl]-3-(trifluoromethyl)-[1,2,4]triazolo[4,3-b]pyridazine]
1.4	FC(F)(F)c1nnc2ccc(N3CCN(c4ccccc4Cl)CC3)nn12 [Example 37, 6-[4-(2-chlorophenyl)piperazin-1-yl]-3-(trifluoromethyl)-[1,2,4]triazolo[4,3-b]pyridazine]
5	O=C1OCc2ccccc2N1C1CCN(c2ccc3nnc(C(F)(F)F)n3n2)CC1 [Example 39, 1-[1-[3-(trifluoromethyl)-[1,2,4]triazolo[4,3-b]pyridazin-6-yl]piperidin-4-yl]-4H-3,1-benzoxazin-2-one]
3.3	O=C1CCc2ccccc2N1C1CCN(c2ccc3nnc(C(F)(F)F)n3n2)CC1 [Example 40, 1-[1-[3-(trifluoromethyl)-[1,2,4]triazolo[4,3-b]pyridazin-6-yl]piperidin-4-yl]-3,4-dihydroquinolin-2-one]
1.5	N#Cc1cccc(CN2CCN(c3ccc4nnc(C(F)(F)F)n4n3)CC2)c1 [Example 43, 3-[[4-[3-(trifluoromethyl)-[1,2,4]triazolo[4,3-b]pyridazin-6-yl]piperazin-1-yl]methyl]benzonitrile]
1.5	Cc1ccc(CN2CCN(c3ccc4nnc(C(F)(F)F)n4n3)CC2)cc1 [Example 47, 6-[4-[(4-methylphenyl)methyl]piperazin-1-yl]-3-(trifluoromethyl)-[1,2,4]triazolo[4,3-b]pyridazine]
1.5	FC(F)(F)c1nnc2ccc(N3CCN(Cc4nc5ccccc5s4)CC3)nn12 [Example 48, 6-[4-(1,3-benzothiazol-2-ylmethyl)piperazin-1-yl]-3-(trifluoromethyl)-[1,2,4]triazolo[4,3-b]pyridazine]
3.2	FC(F)(F)c1nnc2ccc(N3CCN(Cc4nc5ccccc5o4)CC3)nn12 [Example 49, 6-[4-(1,3-benzoxazol-2-ylmethyl)piperazin-1-yl]-3-(trifluoromethyl)-[1,2,4]triazolo[4,3-b]pyridazine]
1.4	FC(F)(F)c1nnc2ccc(N3CCN(Cc4ccnc5ccccc45)CC3)nn12 [Example 50, 4-[[4-[3-(trifluoromethyl)-[1,2,4]triazolo[4,3-b]pyridazin-6-yl]piperazin-1-yl]methyl]quinoline]
8.4	FC(F)(F)c1nnc2ccc(N3CCN(Cc4nccs4)CC3)nn12 [Example 51, 6-[4-(1,3-thiazol-2-ylmethyl)piperazin-1-yl]-3-(trifluoromethyl)-[1,2,4]triazolo[4,3-b]pyridazine]
7.9	FC(F)(F)c1nnc2ccc(N3CCN(Cc4csnn4)CC3)nn12 [Example 53, 6-[4-(thiadiazol-4-ylmethyl)piperazin-1-yl]-3-(trifluoromethyl)-[1,2,4]triazolo[4,3-b]pyridazine]
6.7	Cn1c(CN2CCN(c3ccc4nnc(C(F)(F)F)n4n3)CC2)nc2ccccc21 [Example 54, 6-[4-[(1-methylbenzimidazol-2-yl)methyl]piperazin-1-yl]-3-(trifluoromethyl)-[1,2,4]triazolo[4,3-b]pyridazine]
8.8	FC(F)(F)c1nnc2ccc(N3CCN(Cc4cnccn4)CC3)nn12 [Example 55, 6-[4-(pyrazin-2-ylmethyl)piperazin-1-yl]-3-(trifluoromethyl)-[1,2,4]triazolo[4,3-b]pyridazine]
2.1	FC(F)(F)c1nnc2ccc(N3CCN(Cc4ccc5ccccc5n4)CC3)nn12 [Example 56, 2-[[4-[3-(trifluoromethyl)-[1,2,4]triazolo[4,3-b]pyridazin-6-yl]piperazin-1-yl]methyl]quinoline]
4.3	CS(=O)(=O)c1ccccc1CN1CCN(c2ccc3nnc(C(F)(F)F)n3n2)CC1 [Example 57, 6-[4-[(2-methylsulfonylphenyl)methyl]piperazin-1-yl]-3-(trifluoromethyl)-[1,2,4]triazolo[4,3-b]pyridazine]
2.7	N#Cc1ccccc1CN1CCN(c2ccc3nnc(C(F)(F)F)n3n2)CC1 [Example 59, 2-[[4-[3-(trifluoromethyl)-[1,2,4]triazolo[4,3-b]pyridazin-6-yl]piperazin-1-yl]methyl]benzonitrile]
0.61	FC(F)(F)c1nnc2ccc(N3CCN(Cc4csc5ccccc45)CC3)nn12 [Example 60, 6-[4-(1-benzothiophen-3-ylmethyl)piperazin-1-yl]-3-(trifluoromethyl)-[1,2,4]triazolo[4,3-b]pyridazine]

Structure (SMILES)	DC50 [µM]
CC(C)(C)OC(=O)N1[C@@H]2CC[C@H]1CN(c1ccc3nnc(C(F)(F)F)n3n1)C2 [Example 35, tert-butyl (1S,5R)-3-[3-(trifluoromethyl)-[1,2,4]triazolo[4,3-b]pyridazin-6-yl]-3,8-diazabicyclo[3.2.1]octane-8-carboxylate]	3

— patent US8003649B2 (AstraZeneca AB, priority 2007, dated 2011)
